Measurements: the NIST ThermoML archive (doi:10.1021/je700288s)
Where “and” joins values, the source holds several entries; their conditions need not be identical. Identical values can stand only once.

Key:
[1] = mn = molality of the nth substance listed, in mol/kg; conditions: 101 kPa, Liquid; for speed of sound: Sing-around technique in a fixed-path interferometer; for mass density: Vibrating tube method
[2] = 283.15 K; 101 kPa; Liquid; Vibrating tube method

C[C@H](N)C(=O)O [(S)-2-aminopropanoic acid] + O
[1]
Conditions	mass density, m1 = 0.23	mass density, m1 = 0.47	mass density, m1 = 0.72	speed of sound, m1 = 0.23	speed of sound, m1 = 0.47	speed of sound, m1 = 0.72
283.15 K	1006.29 kg/m3 and 1006.34 kg/m3	1012.74 kg/m3 and 1012.69 kg/m3	1018.71 kg/m3 and 1019.09 kg/m3	1464.4 m/s and 1464.1 m/s	1480.4 m/s and 1480.5 m/s	1496.7 m/s and 1495.8 m/s
288.15 K	1005.65 kg/m3 and 1005.61 kg/m3	1011.96 kg/m3 and 1011.92 kg/m3	1017.87 kg/m3 and 1018.24 kg/m3	1482 m/s and 1481.8 m/s	1497.6 m/s and 1497.4 m/s	1512.2 m/s and 1513 m/s
293.15 K	1004.68 kg/m3 and 1004.64 kg/m3	1010.93 kg/m3 and 1010.89 kg/m3	1016.77 kg/m3 and 1017.14 kg/m3	1497.7 m/s and 1497.4 m/s	1512.4 m/s and 1512.6 m/s	1527.5 m/s and 1526.7 m/s
298.15 K	1003.46 kg/m3 and 1003.43 kg/m3	1009.62 kg/m3 and 1009.66 kg/m3	1015.82 kg/m3 and 1015.45 kg/m3	1511.4 m/s and 1511.1 m/s	1525.6 m/s and 1525.8 m/s	1540.1 m/s and 1539.4 m/s
303.15 K	1001.98 kg/m3 and 1002.01 kg/m3	1008.13 kg/m3 and 1008.17 kg/m3	1014.29 kg/m3 and 1013.92 kg/m3	1523.3 m/s and 1523.1 m/s	1537.1 m/s and 1537.2 m/s	1551 m/s and 1550.3 m/s
308.15 K	1000.33 kg/m3 and 1000.36 kg/m3	1006.44 kg/m3 and 1006.48 kg/m3	1012.57 kg/m3 and 1012.19 kg/m3	1533.6 m/s and 1533.3 m/s	1546.9 m/s and 1547 m/s	1560.4 m/s and 1559.7 m/s

O [water]
Conditions	mass density [kg/m3]
[2]	999.699
